Laboratory results: PubChem BioAssay AID248 (DTP/NCI, 2004)
Where “and” joins values, the source holds several entries; their conditions need not be identical. Equal entries are not always repeated. Toxic doses and inconclusive results are not listed.

Tested on: L1210 leukemia ip in BDF1 mice, survival T/C
Assay: NCI In Vivo Anticancer Drug Screen. Data for tumor model L1210 Leukemia (intraperitoneal) in B6D2F1 (BDF1) mice
Details: higher = longer survival
How it was run: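 Mice bearing the transplanted tumor received compound or vehicle. Survival of the treated group was divided by that of the vehicle-treated control group to give the ratio.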

`Nc1nc2n[nH]nc2c(=O)[nH]1` was tested, and the T/C (endpoint: mean survival time, dose: 87.0 mg/kg/injection, schedule: Q07DX Z (ip), vehicle: water) was 121 % of control, the T/C (endpoint: mean survival time, dose: 89.4 mg/kg/injection, schedule: Q01DX Z (ip), vehicle: carboxymethylcellulose (CMC)) was 154 % of control and the T/C (endpoint: mean survival time, dose: 90.0 mg/kg/injection, schedule: Q01DX009 (ip), vehicle: other) was 150 % of control. The T/C (endpoint: mean survival time, dose: 90.0 mg/kg/injection, schedule: Q01DX015 (ip), vehicle: carboxymethylcellulose (CMC)) was 155 % of control, the T/C (endpoint: mean survival time, dose: 90.0 mg/kg/injection, schedule: Q## X015 (ip), vehicle: carboxymethylcellulose (CMC)) was 155 % of control and the T/C (endpoint: mean survival time, dose: 100.0 mg/kg/injection, schedule: Q01DX001 (ip), vehicle: steriod suspending solution) was 118 % of control. The T/C (endpoint: mean survival time, dose: 100.0 mg/kg/injection, schedule: Q01DX009 (ip), vehicle: other) was 152 % of control, the T/C (endpoint: mean survival time, dose: 100.0 mg/kg/injection, schedule: Q01DX009 (ip), vehicle: water) was 154 % of control and the T/C (endpoint: mean survival time, dose: 100.0 mg/kg/injection, schedule: Q01DX Z (im), vehicle: water) was 160 % of control. The T/C (endpoint: mean survival time, dose: 100.0 mg/kg/injection, schedule: Q#A X Z (ip), vehicle: carboxymethylcellulose (CMC)) was 115 % of control, the T/C (endpoint: mean survival time, dose: 111.75 mg/kg/injection, schedule: Q01DX Z (ip), vehicle: carboxymethylcellulose (CMC)) was 160 % of control and the T/C (endpoint: mean survival time, dose: 125.0 mg/kg/injection, schedule: Q01DX001 (sc), vehicle: carboxymethylcellulose (CMC)) was 109 % of control. The T/C (endpoint: mean survival time, dose: 125.0 mg/kg/injection, schedule: Q## X003 (ip), vehicle: carboxymethylcellulose (CMC)) was 152 % of control and 155 % of control, the T/C (endpoint: mean survival time, dose: 135.0 mg/kg/injection, schedule: Q01DX015 (ip), vehicle: carboxymethylcellulose (CMC)) was 152 % of control and the T/C (endpoint: mean survival time, dose: 135.0 mg/kg/injection, schedule: Q## X015 (ip), vehicle: carboxymethylcellulose (CMC)) was 152 % of control. For the same compound, the T/C (endpoint: mean survival time, dose: 150.0 mg/kg/injection, schedule: Q01DX009 (sc), vehicle: carboxymethylcellulose (CMC)) was 150 % of control, the T/C (endpoint: mean survival time, dose: 150.0 mg/kg/injection, schedule: Q01DX Z (ip), vehicle: carboxymethylcellulose (CMC)) was 156 % of control and the T/C (endpoint: mean survival time, dose: 175.0 mg/kg/injection, schedule: Q01DX001 (ip), vehicle: water) was 119 % of control and 121 % of control. The T/C (endpoint: mean survival time, dose: 175.0 mg/kg/injection, schedule: Q07DX Z (ip), vehicle: water) was 116 % of control, the T/C (endpoint: mean survival time, dose: 200.0 mg/kg/injection, schedule: Q01DX001 (ip), vehicle: steriod suspending solution) was 120 % of control and the T/C (endpoint: mean survival time, dose: 200.0 mg/kg/injection, schedule: Q01DX009 (ip), vehicle: saline) was 102 % of control. The T/C (endpoint: mean survival time, dose: 200.0 mg/kg/injection, schedule: Q01DX009 (ip), vehicle: water) was 152 % of control and 160 % of control, the T/C (endpoint: mean survival time, dose: 200.0 mg/kg/injection, schedule: Q01DX Z (im), vehicle: carboxymethylcellulose (CMC)) was 103 % of control and the T/C (endpoint: mean survival time, dose: 200.0 mg/kg/injection, schedule: Q01DX Z (sc), vehicle: carboxymethylcellulose (CMC)) was 124 % of control. The T/C (endpoint: mean survival time, dose: 202.0 mg/kg/injection, schedule: Q01DX009 (ip), vehicle: other) was 98 % of control, the T/C (endpoint: mean survival time, dose: 202.5 mg/kg/injection, schedule: Q01DX015 (ip), vehicle: carboxymethylcellulose (CMC)) was 97 % of control and the T/C (endpoint: mean survival time, dose: 202.5 mg/kg/injection, schedule: Q## X015 (ip), vehicle: carboxymethylcellulose (CMC)) was 97 % of control. For the same compound, the T/C (endpoint: mean survival time, dose: 223.5 mg/kg/injection, schedule: Q01DX Z (ip), vehicle: carboxymethylcellulose (CMC)) was 107 % of control, the T/C (endpoint: mean survival time, dose: 225.0 mg/kg/injection, schedule: Q01DX015 (ip), vehicle: clinical formulation) was 156 % of control and the T/C (endpoint: mean survival time, dose: 250.0 mg/kg/injection, schedule: Q01DX001 (sc), vehicle: carboxymethylcellulose (CMC)) was 113 % of control. For the same compound, the T/C (endpoint: mean survival time, dose: 250.0 mg/kg/injection, schedule: Q06DX003 (ip), vehicle: carboxymethylcellulose (CMC)) was 151 % of control, the T/C (endpoint: mean survival time, dose: 250.0 mg/kg/injection, schedule: Q## X003 (ip), vehicle: carboxymethylcellulose (CMC)) was 155 % of control and the T/C (endpoint: mean survival time, dose: 300.0 mg/kg/injection, schedule: Q01DX009 (ip), vehicle: other) was 119 % of control. The T/C (endpoint: mean survival time, dose: 300.0 mg/kg/injection, schedule: Q01DX009 (sc), vehicle: carboxymethylcellulose (CMC)) was 151 % of control, the T/C (endpoint: mean survival time, dose: 300.0 mg/kg/injection, schedule: Q03DX Z (ip), vehicle: water) was 121 % of control and the T/C (endpoint: mean survival time, dose: 350.0 mg/kg/injection, schedule: Q01DX001 (ip), vehicle: water) was 116 % of control and 121 % of control. The T/C (endpoint: mean survival time, dose: 350.0 mg/kg/injection, schedule: Q07DX Z (ip), vehicle: water) was 109 % of control, the T/C (endpoint: mean survival time, dose: 400.0 mg/kg/injection, schedule: Q01DX Z (sc), vehicle: carboxymethylcellulose (CMC)) was 100 % of control and the T/C (endpoint: mean survival time, dose: 500.0 mg/kg/injection, schedule: Q01DX001 (ip), vehicle: carboxymethylcellulose (CMC)) was 150 % of control. The T/C (endpoint: mean survival time, dose: 500.0 mg/kg/injection, schedule: Q## X003 (ip), vehicle: carboxymethylcellulose (CMC)) was 95 % of control, the T/C (endpoint: mean survival time, dose: 700.0 mg/kg/injection, schedule: Q01DX001 (ip), vehicle: water) was 97 % of control and the T/C (endpoint: mean survival time, dose: 750.0 mg/kg/injection, schedule: Q10DX003 (ip), vehicle: carboxymethylcellulose (CMC)) was 157 % of control. For the same compound, the T/C (endpoint: median survival time, dose: 12.5 mg/kg/injection, schedule: Q01DX009 (ip), vehicle: other) was 122 % of control, the T/C (endpoint: median survival time, dose: 25.0 mg/kg/injection, schedule: Q01DX009 (ip), vehicle: other) was 122 % of control and the T/C (endpoint: median survival time, dose: 200.0 mg/kg/injection, schedule: Q01DX009 (ip), vehicle: other) was 150 % of control.
